Legend:
[1] = test system: renal proximal tubular cells; conditions: Nowak et al., 1999, cited from earlier work
[2] = test system: renal proximal tubular cells; experiment: Basal oxygen consumption (QO2) as marker of mitochondrial function; format: cell-based, rabbit
Description: (§1) Rabbit renal proximal tubules were isolated by iron oxide perfusion method and grown in 35 mm culture dishes in improved conditions as described previously (Nowak and Schnellmann, 1996). The purity of the renal proximal tubular S1 and S2 segments isolated by this method is approximately 96%. The culture medium was a 50:50 mixture of Dulbecco's modified Eagle's essential medium (DMEM) and Ham's F-12 nutrient mix without phenol red, pyruvate, and glucose, supplemented with 15 mM NaHCO3, 15 mM N-2hydroxyethylpiperazine-N′-2-ethanesulfonic acid, and 6 mM lactate (pH7.4, 295 mosmol/kg). Human transferrin (5 μg/ml), selenium (5 ng/ml), hydrocortisone (50 nM), bovine insulin (10 nM), and L-ascorbic acid-2-phosphate (0.05 mM or 0.5 mM) were added to the medium immediately before daily media change (2 ml/ dish).
(§2) Renal proximal tubular cells monolayers reached confluence within 5 days and were treated with dichlorovinyl-L-cysteine (0.2 mM, 100 min) on day 6 of culture. Following dichlorovinyl-L-cysteine exposure, the remaining monolayer was washed with fresh medium and cultured for 4 days. Samples of renal proximal tubular cells were taken at various time points after dichlorovinyl-L-cysteine exposure for measurements of cellular functions. Prior to measurement of any functions, renal proximal tubular cells were washed with ice cold phosphate buffered saline (pH 7.4) or 37° C. culture media (for measurement of oxygen consumption, QO2) to remove non-viable cells.
(§3) Washed renal proximal tubular cells monolayers were gently detached from the dishes with a rubber policeman, suspended in 37° C. culture medium and transferred to the oxygen consumption (QO2) measurement chamber. QO2 was measured polarographically using Clark type electrode as described previously (Nowak and Schnellmann, 1996; Nowak et al., 1998; Nowak et al., 1999). Ouabain-insensitive QO2 was measured in the presence of 0.1 mM ouabain and was calculated as a difference between basal and ouabain-insensitive QO2.

[3] = test system: renal proximal tubular cells; experiment: Monolayer DNA content as marker of renal proximal tubular cell proliferation after DCVC injury; format: cell-based, rabbit
Description: as §1, §2
Monolayer DNA content was used as a marker of renal proximal tubular cells proliferation. Monolayers were solubilized in 0.05 M Tris-HCl (pH 7.4) containing 0.15 M NaCl and 0.05% Triton X-100 and DNA determined in cell lysates by the method of Labarca and Paigen (1980) as described previously (Nowak and Schnellmann, 1996). Protein was measured by the method of Lowry et al. (1951).

[4] = test system: α1 subunit of Na^+-K^+-ATPase; experiment: Immunocytochemical localization of Na+-K+-ATPase (confocal laser scanning microscopy); format: cell-based, rabbit; conditions: for effect on Na+-K+-ATPase protein of the plasma membrane: DCVC 0.2 mM, independent of AscP concentration
Description: as §1, §2
At various time points following dichlorovinyl-L-cysteine exposure, control and DCVC-treated renal proximal tubular cells monolayers were washed 3 times with ice-cold PBS and fixed in 3.7% formaldehyde. Following permeabilization with 100% methanol for 10 min at −20° C., renal proximal tubular cells monolayers were washed with PBS containing 0.1% BSA and 0.3% Triton X-100 (PBS/0.1% BSA/0.3% Triton X-100) for 15 min at room temperature. Blocking of non-specific binding was performed for 30 min in PBS containing 8% BSA. […]

[5] = test system: renal proximal tubular cells; experiment: Ouabain-sensitive QO2 as marker of active Na+ transport; format: cell-based, rabbit
Description: as §1, with “dish). […]” for “dish).”
as §3

[6] = test system: renal proximal tubular cells; experiment: Ouabain-insensitive oxygen consumption (QO2); format: cell-based, rabbit; conditions: for decrease of ouabain-insensitive QO2: 24 hr after DCVC
Description: as §1, §2, §3

[7] = DCVC-injured RPTC, 0.5 mM AscP, day 4

EGF: epidermal growth factor, 10 ng/ml daily treatments
effect on inhibition of RPTC regeneration after DCVC-induced injury ([1]; daily treatments, 10 ng/ml): can be overcome

O=C1O[C@H]([C@@H](O)CO)C(O)=C1OP(=O)([O-])[O-].[Mg+2] [L-ascorbic acid phosphate, L-Ascorbic acid-2-phosphate magnesium salt]
basal QO2 in control RPTC, 0.05 vs 0.5 mM ([2]; control RPTC without DCVC): equivalent
proliferation and recovery of physiological functions and basolateral Na+-K+-ATPase expression ([3]; DCVC-injured RPTC, 0.5 mM AscP, by day 4 (summary)): proliferated, recovered all examined physiological functions and the basolateral membrane expression of Na^+-K^+-ATPase by day 4
increase of monolayer DNA content ([3]; DCVC-injured RPTC, 0.5 mM AscP, day 2): 1.6 fold
increase of monolayer DNA content [3, 7]: 2.3 fold
monolayer DNA content relative to controls [3, 7]: 81 % of controls
monolayer DNA content in control RPTC, 0.05 vs 0.5 mM ([3]; control RPTC without DCVC): equivalent
basolateral Na+-K+-ATPase protein levels and distribution in control RPTC, physiological vs pharmacological concentration ([4]; control RPTC without DCVC): no difference
time of return of active Na+ transport to control levels ([5]; DCVC-injured RPTC, pharmacological concentrations of AscP (discussion)): occurred on day 4
ouabain-sensitive QO2 in control RPTC, 0.05 vs 0.5 mM ([5]; control RPTC without DCVC): equivalent
remaining decrease of ouabain-insensitive QO2 ([6]; DCVC-injured RPTC, through day 4, 0.05 mM AscP): 45%
ouabain-insensitive QO2 ([6]; control RPTC without DCVC, 0.05 mM AscP): 9.7±1.6 nmol O2/min/mg protein
ouabain-insensitive QO2 ([6]; control RPTC without DCVC, 0.5 mM AscP): 12.9±1.5 nmol O2/min/mg protein

N[C@@H](CSC(Cl)=CCl)C(=O)O [dichlorovinyl-L-cysteine, S-(1,2dichlorovinyl)-L-cysteine]
cell death and loss from the monolayer ([1]; earlier study): 30%
decrease of basal QO2 ([2]; 24 hr after DCVC, RPTC grown in 0.05 mM AscP): 59%
decrease in mitochondrial function ([2]; DCVC 0.2 mM, 100 min, independent of AscP concentration): 54%
decrease of basal QO2 ([2]; after DCVC, RPTC grown in 0.5 mM AscP): 62%
renal proximal tubular cells death and loss from the monolayer ([3]; 24 hr after DCVC 0.2 mM, 100 min, independent of AscP 0.05 or 0.5 mM): 60%
loss of monolayer DNA ([3]; 24 hr after DCVC 0.2 mM, 100 min, regardless of AscP 0.05 or 0.5 mM): 61%
effect on Na+-K+-ATPase protein of the plasma membrane [4]: loss of Na^+-K^+-ATPase protein from the basolateral membrane
effect on Na+-K+-ATPase protein of the plasma membrane ([4]; listed as DCVC): loss of the Na^+-K^+-ATPase protein from the basolateral domain
decrease of ouabain-insensitive QO2 ([6]; 0.05 mM AscP): 32%
decrease of ouabain-insensitive QO2 ([6]; 0.5 mM AscP): 50%
ouabain-insensitive QO2 ([6]; DCVC-treated RPTC, 24 hr, 0.05 mM AscP): 6.6±2.6 nmol O2/min/mg protein
ouabain-insensitive QO2 ([6]; DCVC-treated RPTC, 24 hr, 0.5 mM AscP): 6.5±1.0 nmol O2/min/mg protein
